Experiments:
Assay in all cases: relative viability (nuclei count vs DMSO), 5 days (fraction); higher = more cells survive
RERF-LC-KJ = tested on: RERF-LC-KJ
How it was run: (§1)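 One day after seeding in 1536-well plates, lung cancer cell lines were dosed by pin tool. Dosing was either single-drug or a fixed anchor-drug dose plus five library-drug doses (not always all listed) in √10 steps. After 5 days, nuclei were stained in one fix-and-stain step and counted on 4× images, and relative viability is the nuclei count of treated wells over that of vehicle wells, given as the median of duplicate plates.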

PC-3 [JPC-3] = tested on: PC-3 [JPC-3]
How it was run: as §1

LK-2 = tested on: LK-2
How it was run: as §1

COR-L23 = tested on: COR-L23
How it was run: as §1

NCI-H23 = tested on: NCI-H23
How it was run: as §1

UMC-11 = tested on: UMC-11
How it was run: as §1

A-427 = tested on: A-427
How it was run: as §1

HCC-78 = tested on: HCC-78
How it was run: as §1

NCI-H647 = tested on: NCI-H647
How it was run: as §1

NCI-H520 = tested on: NCI-H520
How it was run: as §1

NCI-H2347 = tested on: NCI-H2347
How it was run: as §1

NCI-H1651 = tested on: NCI-H1651
How it was run: as §1

HARA = tested on: HARA
How it was run: as §1

NCI-H838 = tested on: NCI-H838
How it was run: as §1

LXF-289 = tested on: LXF-289
How it was run: as §1

NCI-H1650 = tested on: NCI-H1650
How it was run: as §1

201T = tested on: 201T
How it was run: as §1

NCI-H2405 = tested on: NCI-H2405
How it was run: as §1

LCLC-97TM1 = tested on: LCLC-97TM1
How it was run: as §1

LOU-NH91 = tested on: LOU-NH91
How it was run: as §1

LCLC-103H = tested on: LCLC-103H
How it was run: as §1

With `CN1CCN(CCOc2cc(OC3CCOCC3)c3c(Nc4c(Cl)ccc5c4OCO5)ncnc3c2)CC1` [Saracatinib] + C[C@@H](Oc1cc(-c2cnn(C3CCNCC3)c2)cnc1N)c1c(Cl)ccc(F)c1Cl [Crizotinib] (partner 1 µM) the relative viability (RERF-LC-KJ; first compound 0.02 µM) was 0.81, the relative viability (RERF-LC-KJ; first compound 0.2 µM) was 0.833 and the relative viability (RERF-LC-KJ; first compound 0.6325 µM) was 0.945. The relative viability (RERF-LC-KJ; first compound 2 µM) was 0.778, the relative viability (PC-3 [JPC-3]; first compound 0.02 µM) was 0.997 and the relative viability (PC-3 [JPC-3]; first compound 0.2 µM) was 0.983. For the same compound, the relative viability (PC-3 [JPC-3]; first compound 0.6325 µM) was 0.942, the relative viability (PC-3 [JPC-3]; first compound 2 µM) was 0.582 and the relative viability (LK-2; first compound 0.02 µM) was 0.253. For the same compound, the relative viability (LK-2; first compound 0.2 µM) was 0.225, the relative viability (LK-2; first compound 0.6325 µM) was 0.196 and the relative viability (LK-2; first compound 2 µM) was 0.201. For the same compound, the relative viability (COR-L23; first compound 0.02 µM) was 0.65, the relative viability (COR-L23; first compound 0.2 µM) was 0.52 and the relative viability (COR-L23; first compound 0.6325 µM) was 0.658. For the same compound, the relative viability (COR-L23; first compound 2 µM) was 0.558, the relative viability (NCI-H23; first compound 0.02 µM) was 0.528 and the relative viability (NCI-H23; first compound 0.6325 µM) was 0.557. The relative viability (NCI-H23; first compound 2 µM) was 0.419, the relative viability (UMC-11; first compound 0.02 µM) was 0.571 and the relative viability (UMC-11; first compound 0.6325 µM) was 0.677. The relative viability (UMC-11; first compound 2 µM) was 0.386, the relative viability (A-427; first compound 0.02 µM) was 1.04 and the relative viability (A-427; first compound 0.2 µM) was 0.604. It also gave a relative viability (A-427; first compound 0.6325 µM) of 0.837, a relative viability (A-427; first compound 2 µM) of 0.926 and a relative viability (HCC-78; first compound 0.02 µM) of 0.355. It also gave a relative viability (HCC-78; first compound 0.2 µM) of 0.315, a relative viability (HCC-78; first compound 0.6325 µM) of 0.317 and a relative viability (HCC-78; first compound 2 µM) of 0.207. For the same compound, the relative viability (NCI-H647; first compound 0.02 µM) was 1.11, the relative viability (NCI-H647; first compound 0.2 µM) was 0.707 and the relative viability (NCI-H647; first compound 0.6325 µM) was 0.704. It also gave a relative viability (NCI-H647; first compound 2 µM) of 0.411, a relative viability (NCI-H520; first compound 0.02 µM) of 0.74 and a relative viability (NCI-H520; first compound 0.2 µM) of 0.732. It also gave a relative viability (NCI-H520; first compound 0.6325 µM) of 0.531, a relative viability (NCI-H520; first compound 2 µM) of 0.37 and a relative viability (NCI-H2347; first compound 0.02 µM) of 0.732. It also gave a relative viability (NCI-H2347; first compound 0.2 µM) of 0.686, a relative viability (NCI-H2347; first compound 0.6325 µM) of 1.03 and a relative viability (NCI-H2347; first compound 2 µM) of 0.486. It also gave a relative viability (NCI-H1651; first compound 0.02 µM) of 0.866, a relative viability (NCI-H1651; first compound 0.2 µM) of 0.802 and a relative viability (NCI-H1651; first compound 0.6325 µM) of 0.923. It also gave a relative viability (NCI-H1651; first compound 2 µM) of 0.751, a relative viability (HARA; first compound 0.02 µM) of 1.02 and a relative viability (HARA; first compound 0.6325 µM) of 0.829. For the same compound, the relative viability (HARA; first compound 2 µM) was 0.64, the relative viability (NCI-H838; first compound 0.02 µM) was 0.818 and the relative viability (NCI-H838; first compound 0.2 µM) was 0.779. The relative viability (NCI-H838; first compound 0.6325 µM) was 0.608, the relative viability (NCI-H838; first compound 2 µM) was 0.582 and the relative viability (LXF-289; first compound 0.02 µM) was 0.845. The relative viability (LXF-289; first compound 0.2 µM) was 0.775, the relative viability (LXF-289; first compound 0.6325 µM) was 0.847 and the relative viability (LXF-289; first compound 2 µM) was 0.892. It also gave a relative viability (NCI-H1650; first compound 0.02 µM) of 1.03, a relative viability (NCI-H1650; first compound 0.2 µM) of 0.637 and a relative viability (NCI-H1650; first compound 0.6325 µM) of 0.582. The relative viability (NCI-H1650; first compound 2 µM) was 0.413, the relative viability (201T; first compound 0.02 µM) was 1.05 and the relative viability (201T; first compound 0.2 µM) was 0.946. It also gave a relative viability (201T; first compound 0.6325 µM) of 0.962, a relative viability (201T; first compound 2 µM) of 0.862 and a relative viability (NCI-H2405; first compound 0.02 µM) of 0.854. The relative viability (NCI-H2405; first compound 0.2 µM) was 0.788, the relative viability (NCI-H2405; first compound 0.6325 µM) was 0.751 and the relative viability (NCI-H2405; first compound 2 µM) was 0.501. For the same compound, the relative viability (LCLC-97TM1; first compound 0.02 µM) was 0.416, the relative viability (LCLC-97TM1; first compound 0.2 µM) was 0.268 and the relative viability (LCLC-97TM1; first compound 0.6325 µM) was 0.457. For the same compound, the relative viability (LCLC-97TM1; first compound 2 µM) was 0.316, the relative viability (LOU-NH91; first compound 0.02 µM) was 0.692 and the relative viability (LOU-NH91; first compound 0.2 µM) was 0.57. It also gave a relative viability (LOU-NH91; first compound 0.6325 µM) of 0.542, a relative viability (LOU-NH91; first compound 2 µM) of 0.458 and a relative viability (LCLC-103H; first compound 0.02 µM) of 1.11. It also gave a relative viability (LCLC-103H; first compound 0.2 µM) of 0.817, a relative viability (LCLC-103H; first compound 0.6325 µM) of 1.13 and a relative viability (LCLC-103H; first compound 2 µM) of 0.976.

— the supplement of paper PMC10307832
